The nature of the data set: Plasma concentration of Verbindung A after oral administration to rhesus monkeys (determined by 3H-BIBU 52 ligand displacement on human platelets against a calibration curve). The following applies: rhesus monkey, oral 1 mg/kg, Rhesusaffe, concentration of Verbindung A measured. The class given is in vivo, Rhesusaffen. The protocol:
Beispielsweise wurde die Konzentration der Verbindung A nach oraler Gabe der Verbindungen der Beispiele 1 (Verbindung B) und 1(1) (Verbindung C) der vorliegenden Erfindung im Plasma bestimmt und mit der Plasmakonzentration der Verbindung A nach oraler Gabe der Verbindung A verglichen.
Nach oraler Gabe von 1 mg/kg der zu untersuchenden Verbindungen am Rhesusaffen wird die Konzentration der Verbindung A im Plasma 4, 8, 12 und 24 Stunden nach Substanzgabe gemessen. Hierzu wird das Rhesusplasma mit einer Suspension von Humanthrombozyten in Plasma und ^3H-BIBU 52 (siehe DE-A-4,214,245) als Ligand inkubiert. Der freie und gebundene Ligand wird durch Zentrifugation getrennt und durch Szintillationszählung quantitativ bestimmt. Aus der Menge des gebundenen Liganden wird anhand einer Eichkurve die Konzentration der Verbindung A errechnet.
Dazu wird aus einer Antikubitalvene Spenderblut entnommen und mit Trinatriumzitrat antikoaguliert (Endkonzentration: 13 mMol/l). Das Blut wird 10 Minuten bei 170 x g zentrifugiert und das überstehende plättchenreiche Plasma (PRP) abgenommen. Das Restblut wird noch einmal bei 3200 x g scharf abzentrifugiert und das überstehende plättchenarme Plasma (PPP) abgenommen.
Für die Eichkurve zur Berechnung der Konzentration wird zu 995 µl PPP 5 µl Lösung der Verbindung A zugesetzt (Endkonzentration 5000 nMol/l). Aus dieser Plasmaprobe werden mit PPP weitere Plasmaproben verdünnt bis zu einer Endkonzentration von 2,5 nMol/l.
Zu 150 µl Plasmaprobe vom Rhesusaffen oder Eichkurvenplasma werden 10 µl ^3H-BIBU 52 (Endkonzentration 10 nMol/l), 10 µl ^14C-Sucrose (370 Bq) und 80 µl PRP gegeben und bei Raumtemperatur 20 Minuten inkubiert. Anschließend werden die Proben 5 Minuten bei 2000 x g zentrifugiert und der Überstand abgezogen. 100 µl des Überstandes werden versetzt mit 100 µl NaOH 0,2 Mol/l, 15 µl HCl 5 Mol/l und 2 ml Szintillator und die ^3H- und ^14C-Radioaktivität quantitativ gemessen. Das Pellet wird in 200 µl NaOH 0,2 Mol/l gelöst. 180 µl davon werden versetzt mit 15 µl HCl 5 Mol/l und 2 ml Szintillator und die ^3H- und ^14C-Radioaktivität gemessen. Das im Pellet noch verbliebene Restplasma wird aus dem ^14C-Gehalt bestimmt und abgezogen. Die Menge des gebundenen Liganden wird aus dem ^3H-Gehalt bestimmt. Die Menge des gebundenen Liganden wird gegen die Konzentration des Eichkurvenplasmas aufgetragen. Die Konzentration der Verbindung A im Rhesusplasma wird aus der Menge des gebundenen Liganden in der betreffenden Plasmaprobe im Vergleich mit der Eichkurve errechnet.
Die nachfolgende Tabelle enthält die gefundenen Werte: […]

The values below come from EP1102746B1, “SUBSTITUTED PHENYLAMIDINES WITH ANTITHROMBOTIC ACTION” (Boehringer Ingelheim Pharma GmbH & Co.KG, priority 1998, dated 2000).

The structures appear in SMILES notation.

On to `N=C(N)c1ccc(NC(=O)CCC2CCN(CC(=O)O)CC2)cc1` [Verbindung A, 4-[2-[(4-Amidinophenyl)aminocarbonyl]ethyl]-1-carboxymethyl-piperidin], for which the concentration at 4 h (4 h after dosing, read-out: Konz. von A in [nM], 4h) is 174 nM. The concentration at 8 h (8 h after dosing, read-out: Konz. von A in [nM], 8h) was determined as 38 nM. Moreover, for the setting “12 h after dosing, read-out: Konz. von A in [nM], 12h”, the concentration at 12 h amounted to 25 nM. In addition, the concentration at 24 h (24 h after dosing, read-out: Konz. von A in [nM], 24h) turned out to be 3 nM.
